Measured values published in patent US6946260B2, “Allergen/inflammatory testing and diagnosis” (Euro/DPC Limited, priority 1992, dated 2005).

Legend:
Type in all cases: cell-based, rat
[1] = system: RBL-2H3 cell-line transfected with the α-chain of the human high-affinity receptor for IgE; test: Attenuation of antigen- or irritant-induced mediator release by antagonists; conditions: competing sugars; lectins of e.g. pollen or bacterial and viral agglutinins
Procedure: For example, where a composition was being tested or developed for its ability to attenuate an IgE mediated response such as asthma or hay fever, antigen specific IgE would be present, for example, in the form of human serum.
Following incubation, cells were washed (2×1 ml) with buffer A (120 mM NaC1, 5 mM KC1, 25 mM PIPES, 1 mM CaC12, 0.04 mM MgC12, 5.6 mM glucose, 0.1% BSA, pH7.4) and pre-incubated for a further period of 10 minutes at 37 degrees C. with buffer A (0.5 ml) which was removed before challenge with buffer A (0.4 ml) supplemented with a pre-selected antigen (in an amount as afore described) and the therapeutic composition or the antagonist.
(§1) For the determination of antigen induced [^3H]-5HT release, the well was incubated at 37 degrees C. for 15 minutes, cooled on ice, supernatant was then removed and spun at 2000 g (1 minute) before liquid scintillation counting (2 minutes). The percentage release of [^3H]-5HT was calculated by the method of Siraganian and Hook.

[2] = system: RBL-2H3 (H 2/2/C) transfectants; test: Antigen-induced mediator release after sensitization with serum from a bee-venom-allergic individual; conditions: cells sensitized with serum (1:10) of bee venom sensitive individual (EC), increasing antigen concentrations
Procedure: Triggering of RBL-2H3 (H 2/2/C) transfectants following sensitization with serum from a bee-venom-allergic individual. Cells were incubated with the serum (1:10), Dex (10-^6M) and [^3H]-5HT. After washing and pre-incubation the cells were challenged with a range of concentrations of purified bee venom phospholipase A2 (PLA2). The percentage release of [^3H]-5HT (●) and β-hexosaminidase (∘) were determined; data were corrected for background and normalized with respect to values obtained for triggering with hIgE-DNP (1 μg/mL and NIP-HSA (100 ng/mL).
Transfected RBL-2H3 clones were incubated for 24 hours with or without serum (1:10 dilution) from a bee venom sensitive individual (EC) in the presence of 10-^6M dexamethazone and [^3H]-5-hydroxytryptamine. […]
[^3H]-5-Hydroxytyptamine was measured after a 15 minutes incubation period, release was corrected for background and expressed relative to the total [^3H]-5-hydroxytryptamine incorporated. […]
as §1, with “Hook (Manual of Clinical Immunology of the American Society for Microbiology Washington D.C., 1980 Page 808).” for “Hook.”

[3] = system: RBL-2H3 cell-line transfected with the α-chain of the human high-affinity receptor for IgE; test: Irritant/antigen-induced mediator release in the absence of IgE sensitization; conditions: control, no sensitizing serum; same antigen concentrations
Procedure: Parent RBL-2H3 cells or clones transfected with the α-chain of the human high-affinity receptor complex were plated out in 24-well plates at 2×10^5 cells/well as described previously in the citations referred to on Page 2 of this application. For the determination of antigen-induced mediator release, plates were incubated at 37 degrees C. for 15 minutes, cooled on ice, the supernatant was removed, spun at […] (1 minute) before liquid scintillation counting to measure [^3H]-5-hydroxytryptamine (5-HT release. The ImmunoTech histamine enzyme immunoassay was used to quantify histamine release, and hydrolysis of toluene sulphonyl methyl ester was employed to monitor protease release (please see Wilson, A. P. M., Pullar, C. E., Camp, A. M., and Helm B. A., Human IgE Mediates Stimulus Secretion Coupling in Rat Basophilic Leukemia Cells Transfected with the Alpha Chain of the Human High-Affinity Receptor, European Journal of Immunology, 23:240-244, 1993, or alternatively, please see other references cited on Page 2 of this application). […]
For the determination of irritant or antigen induced [^3H]-5HT release, the well was incubated at 37 degrees C. for 15 minutes, cooled in ice, supernatant was then removed and spun at 2000 g (1 minute) before liquid scintillation counting (2 minutes). The percentage release of [^3H]-5HT was calculated by the method of Siraganian and Hook. […]

Row | Molecule | inhibition of triggering of mast cells and basophils by lectins [1] | also measured
1 | CC(=O)N[C@H]1[C@H]([C@H](O)[C@H](O)CO)OC(O)(C(=O)O)C[C@@H]1O (stereo partly drawn) [N-acetyl neuraminic acid] | can inhibit the triggering of mast cells and basophils | 
2 | bee venom phospholipase A2 |  | mediator release ([3H]-5HT, β-hexosaminidase) dose response in sensitized cells [2]: typical bell-shaped dose response pattern; mediator release ([3H]-5HT, β-hexosaminidase) dose response in sensitized cells ([2]; listed as bee venom PLA2): typical bell-shaped dose response curve; mediator release dose response in non-sensitized cells [3]: mediator release increased in response to antigen concentration
3 | OC[C@H]1O[C@@H](O[C@H]2[C@H](O)[C@@H](O)C(O)O[C@@H]2CO)[C@H](O)[C@@H](O)[C@H]1O (stereo partly drawn) [lactose] | can inhibit the triggering of mast cells and basophils | 
4 | C[C@@H]1O[C@@H](O)[C@@H](O)[C@H](O)[C@@H]1O [a-L-fucose] | can inhibit the triggering of mast cells and basophils | 
5 | OC[C@H]1O[C@@H](O)[C@H](O)[C@@H](O)[C@H]1O [b-D-galactose] | can inhibit the triggering of mast cells and basophils | 
6 | CC(=O)N[C@H]1C(O)O[C@H](CO)[C@@H](O)[C@@H]1O (stereo partly drawn) [N-acetyl-D-glucosamin] | can inhibit the triggering of mast cells and basophils | 
7 | CO[C@H]1O[C@H](CO)[C@@H](O)[C@H](O)[C@@H]1O [a-methyl-mannoside] | can inhibit the triggering of mast cells and basophils | 
